Measured values published in ChEMBL document CHEMBL1133201, “Synthesis and cytotoxic activity of acetogenin analogues” (Bioorg Med Chem Lett, 2000).

System: L1210
Experiment: In vitro inhibitory activity was tested against L1210 leukemia cells
Assay type: functional, cell-based
Details: Mus musculus

Question: How did the IC50 turn out when `CCCCCCCCCC[C@H](O)[C@H]1CC[C@H]([C@H]2CC[C@H]([C@H](O)CCCCCCCCCC[C@@H]3CC(CC(C)=O)C(=O)O3)O2)O1` (some centres undefined) [BULLATACINONE] was run?
Answer: The IC50 was 16 nM.

Question: `CCCCN(CCCC)[C@@H](O)COCCOC[C@@H](O)C#CCCCCCCC[C@@H]1CC(CC(C)=O)C(=O)O1` (some centres undefined) was tested. Which IC50 did it give?
Answer: The IC50 was 2500 nM.

Question: How did the IC50 turn out when `CCCCCCCCCC[C@@H](O)COCCOC[C@@H](O)C#CCCCCCCC[C@@H]1CC(CC(C)=O)C(=O)O1` (some centres undefined) was run?
Answer: Its IC50 is 1000 nM.

Question: For `CC(=O)CC1C[C@@H](CCCCCCCC#C[C@@H](O)COCCOC[C@@H](O)N2CCCCC2)OC1=O` (some centres undefined), which IC50 is on record?
Answer: The IC50 was 28700 nM.

Question: How did the IC50 turn out when `CC(=O)CC1C[C@@H](CCCCCCCC#C[C@H](O)COCCOC[C@H](O)c2ccccc2)OC1=O` (some centres undefined) was run?
Answer: Its IC50 is 21600 nM.

Question: How did the IC50 turn out when `COc1ccc([C@H](O)COCCOC[C@H](O)C#CCCCCCCC[C@@H]2CC(CC(C)=O)C(=O)O2)cc1` (some centres undefined) was run?
Answer: The IC50 was over 10000 nM.

Question: Which IC50 does the source give for `CC(=O)CC1C[C@@H](CCCCCCCC#C[C@@H](O)COCCOC[C@@H](O)c2ccc(C(F)(F)F)cc2)OC1=O` (some centres undefined) here?
Answer: The IC50 was 3300 nM.

Question: How did the IC50 turn out when `CCCCCCCCCC[C@@H](O)[C@@H]1CC[C@@H]([C@@H]2CC[C@@H]([C@H](O)CCCCCCCCCC(O)CC3=CC(C)OC3=O)O2)O1` (some centres undefined) [BULLATACIN] was run?
Answer: The IC50 was 0.4 nM.

Question: `CCCCCCCCCC[C@H](O)COCCOC[C@H](O)C#CCCCCCCC[C@@H]1CC(CC(C)=O)C(=O)O1` (some centres undefined) was tested. Which IC50 did it give?
Answer: Its IC50 is 3500 nM.

Question: For `COc1ccc([C@@H](O)COCCOC[C@@H](O)C#CCCCCCCC[C@@H]2CC(CC(C)=O)C(=O)O2)cc1` (some centres undefined), which IC50 is on record?
Answer: The IC50 was 32000 nM.

Question: `CC(=O)CC1C[C@@H](CCCCCCCC#C[C@H](O)COCCOC[C@H](O)c2ccc3ccccc3c2)OC1=O` (some centres undefined) was tested. Which IC50 did it give?
Answer: The IC50 was 3000 nM.

Question: How did the IC50 turn out when `CC(=O)CC1C[C@@H](CCCCCCCC#C[C@@H](O)COCCOC[C@@H](O)c2ccccc2)OC1=O` (some centres undefined) was run?
Answer: The IC50 was 19800 nM.

Question: For `CCCCCCCCCCCC[C@@H](O)[C@H]1CC[C@H]([C@H](O)CCCC[C@H](O)CCCCC[C@@H](O)CC2=CC(C)OC2=O)O1` (some centres undefined) [ANNONACIN], which IC50 is on record?
Answer: Its IC50 is 42 nM.

Question: `CC(=O)CC1C[C@@H](CCCCCCCC#C[C@@H](O)COCCOC[C@@H](O)OC2CC[C@]3(C)C(=CC[C@@H]4[C@H]5CC[C@@H]([C@@H](C)CCCC(C)C)[C@]5(C)CC[C@H]43)C2)OC1=O` (some centres undefined) was tested. Which IC50 did it give?
Answer: Its IC50 is 2800 nM.
